Experimental data: ChEMBL document CHEMBL1201862, “PubChem BioAssay data set” (2004)
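Briefly, cells in 96-well plates were exposed to five compound concentrations for 48 h, and endpoints were estimated by linear interpolation. GI50 = concentration required for 50% inhibition of growth.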 Activity calls are given as the source filed them. No stated cut-off is given here; in the data, active = GI50 up to about 1.1 µM and inactive = higher.

Legend:
Test in all cases: NCI-60 cell line screen, 48 h
786-0 = system: 786-0
A498 = system: A498
A549 = system: A549
ACHN = system: ACHN
CAKI-1 = system: CAKI-1
CCRF-CEM = system: CCRF-CEM
DLD-1 = system: DLD-1
DMS-114 = system: DMS-114
DMS-273 = system: DMS-273
EKVX = system: EKVX
HCC 2998 = system: HCC 2998
HCT-116 = system: HCT-116
HCT-15 = system: HCT-15
HL-60 = system: HL-60
HOP-62 = system: HOP-62
HT-29 = system: HT-29
IGROV-1 = system: IGROV-1
K562 = system: K562
KM-20L2 = system: KM-20L2
KM12 = system: KM12
LXFL 529 = system: LXFL 529
M14 = system: M14
M19-MEL = system: M19-MEL
MOLT-4 = system: MOLT-4
Malme-3M = system: Malme-3M
NCI-H226 = system: NCI-H226
NCI-H23 = system: NCI-H23
NCI-H460 = system: NCI-H460
OVCAR-3 = system: OVCAR-3
OVCAR-4 = system: OVCAR-4
OVCAR-5 = system: OVCAR-5
OVCAR-8 = system: OVCAR-8
RPMI-8226 = system: RPMI-8226
RXF 393 = system: RXF 393
SF-295 = system: SF-295
SF-539 = system: SF-539
SK-MEL-28 = system: SK-MEL-28
SK-MEL-2 = system: SK-MEL-2
SK-MEL-5 = system: SK-MEL-5
SK-OV-3 = system: SK-OV-3
SNB-75 = system: SNB-75
SNB-78 = system: SNB-78
SW-620 = system: SW-620
TK-10 = system: TK-10
U-251 = system: U-251
UACC-257 = system: UACC-257
UACC-62 = system: UACC-62
UO-31 = system: UO-31
XF498 = system: XF498
COLO 205 = system: COLO 205
LOX IMVI = system: LOX IMVI
SF-268 = system: SF-268
SN12C = system: SN12C
SNB-19 = system: SNB-19
SR = system: SR
NCI-H522 = system: NCI-H522
HOP-92 = system: HOP-92

CCC(C)(C)NS(=O)(=O)c1ccccc1
GI50 (786-0): > 100 µM (inactive)
GI50 (A498): > 100 µM (inactive)
GI50 (A549): > 100 µM (inactive)
GI50 (ACHN): > 100 µM (inactive)
GI50 (CAKI-1): > 100 µM (inactive)
GI50 (CCRF-CEM): > 100 µM (inactive)
GI50 (DLD-1): > 100 µM (inactive)
GI50 (DMS-114): > 100 µM (inactive)
GI50 (DMS-273): > 100 µM (inactive)
GI50 (EKVX): > 100 µM (inactive)
GI50 (HCC 2998): > 100 µM (inactive)
GI50 (HCT-116): > 100 µM (inactive)
GI50 (HCT-15): > 100 µM
GI50 (HL-60): > 100 µM (inactive)
GI50 (HOP-62): > 100 µM (inactive)
GI50 (HT-29): > 100 µM (inactive)
GI50 (IGROV-1): > 100 µM (inactive)
GI50 (K562): > 100 µM (inactive)
GI50 (KM-20L2): > 100 µM (inactive)
GI50 (KM12): > 100 µM (inactive)
GI50 (LXFL 529): > 100 µM (inactive)
GI50 (M14): > 100 µM (inactive)
GI50 (M19-MEL): > 100 µM (inactive)
GI50 (MOLT-4): > 100 µM (inactive)
GI50 (Malme-3M): > 100 µM (inactive)
GI50 (NCI-H226): > 10 µM (inactive)
GI50 (NCI-H23): > 100 µM (inactive)
GI50 (NCI-H460): > 100 µM (inactive)
GI50 (OVCAR-3): > 100 µM (inactive)
GI50 (OVCAR-4): > 100 µM (inactive)
GI50 (OVCAR-5): > 100 µM (inactive)
GI50 (OVCAR-8): > 100 µM (inactive)
GI50 (RPMI-8226): > 100 µM (inactive)
GI50 (RXF 393): > 100 µM (inactive)
GI50 (SF-295): > 100 µM (inactive)
GI50 (SF-539): > 100 µM (inactive)
GI50 (SK-MEL-28): > 100 µM (inactive)
GI50 (SK-MEL-2): > 100 µM (inactive)
GI50 (SK-MEL-5): > 100 µM (inactive)
GI50 (SK-OV-3): > 100 µM (inactive)
GI50 (SNB-75): > 100 µM (inactive)
GI50 (SNB-78): > 100 µM (inactive)
GI50 (SW-620): > 100 µM (inactive)
GI50 (TK-10): > 100 µM (inactive)
GI50 (U-251): > 100 µM (inactive)
GI50 (UACC-257): > 100 µM (inactive)
GI50 (UACC-62): > 100 µM (inactive)
GI50 (UO-31): > 100 µM (inactive)
GI50 (XF498): > 100 µM (inactive)

O=c1cc(-c2ccccc2)c2cc3c(=O)ccoc3cc2o1
GI50 (786-0): > 100 µM (inactive)
GI50 (A498): 15.7 µM (inactive)
GI50 (A549): > 100 µM (inactive)
GI50 (ACHN): 87.9 µM (inactive)
GI50 (CCRF-CEM): 48.1 µM (inactive)
GI50 (COLO 205): > 100 µM (inactive)
GI50 (DLD-1): 77.4 µM (inactive)
GI50 (DMS-114): 83 µM (inactive)
GI50 (DMS-273): > 100 µM (inactive)
GI50 (EKVX): > 100 µM (inactive)
GI50 (HCC 2998): > 100 µM (inactive)
GI50 (HCT-116): > 100 µM (inactive)
GI50 (HCT-15): > 100 µM
GI50 (HL-60): > 100 µM (inactive)
GI50 (HOP-62): 80.4 µM (inactive)
GI50 (HT-29): > 100 µM (inactive)
GI50 (K562): > 100 µM (inactive)
GI50 (KM-20L2): > 100 µM (inactive)
GI50 (LOX IMVI): > 100 µM (inactive)
GI50 (M14): > 100 µM (inactive)
GI50 (M19-MEL): > 100 µM (inactive)
GI50 (MOLT-4): > 100 µM (inactive)
GI50 (Malme-3M): 81.5 µM (inactive)
GI50 (NCI-H226): 79.1 µM (inactive)
GI50 (NCI-H23): > 100 µM (inactive)
GI50 (NCI-H460): > 100 µM (inactive)
GI50 (OVCAR-3): > 100 µM (inactive)
GI50 (OVCAR-4): > 100 µM (inactive)
GI50 (OVCAR-8): > 100 µM (inactive)
GI50 (RPMI-8226): > 100 µM (inactive)
GI50 (RXF 393): 20 µM (inactive)
GI50 (SF-268): > 100 µM (inactive)
GI50 (SF-295): 42.8 µM (inactive)
GI50 (SF-539): > 100 µM (inactive)
GI50 (SK-MEL-28): > 100 µM (inactive)
GI50 (SK-MEL-2): > 100 µM (inactive)
GI50 (SK-MEL-5): 43.7 µM (inactive)
GI50 (SN12C): > 100 µM (inactive)
GI50 (SNB-19): 64.4 µM (inactive)
GI50 (SNB-75): 14 µM (inactive)
GI50 (SR): > 100 µM (inactive)
GI50 (SW-620): > 100 µM (inactive)
GI50 (TK-10): 44.4 µM (inactive)
GI50 (U-251): > 100 µM (inactive)
GI50 (UACC-257): > 100 µM (inactive)
GI50 (UACC-62): 62.2 µM (inactive)
GI50 (UO-31): > 100 µM (inactive)
GI50 (XF498): > 100 µM (inactive)

COc1cc(-c2ccc(NC(=O)SCCC(=O)O)cc2OC)ccc1NC(=O)SCCC(=O)O
GI50 (786-0): > 100 µM (inactive)
GI50 (A498): > 100 µM (inactive)
GI50 (A549): > 100 µM (inactive)
GI50 (ACHN): > 100 µM (inactive)
GI50 (CAKI-1): > 100 µM (inactive)
GI50 (CCRF-CEM): 98.2 µM (inactive)
GI50 (COLO 205): > 100 µM (inactive)
GI50 (DMS-114): > 100 µM (inactive)
GI50 (DMS-273): > 100 µM (inactive)
GI50 (EKVX): > 100 µM (inactive)
GI50 (HCT-116): > 100 µM (inactive)
GI50 (HCT-15): > 100 µM
GI50 (HL-60): 24.9 µM (inactive)
GI50 (HOP-62): > 100 µM (inactive)
GI50 (HT-29): > 100 µM (inactive)
GI50 (K562): > 100 µM (inactive)
GI50 (KM-20L2): > 100 µM (inactive)
GI50 (KM12): > 100 µM (inactive)
GI50 (LOX IMVI): > 100 µM (inactive)
GI50 (LXFL 529): > 100 µM (inactive)
GI50 (M14): > 100 µM (inactive)
GI50 (M19-MEL): > 100 µM (inactive)
GI50 (MOLT-4): > 100 µM (inactive)
GI50 (Malme-3M): > 100 µM (inactive)
GI50 (NCI-H226): > 100 µM (inactive)
GI50 (NCI-H23): > 100 µM (inactive)
GI50 (NCI-H460): > 100 µM (inactive)
GI50 (NCI-H522): > 100 µM (inactive)
GI50 (OVCAR-3): > 100 µM (inactive)
GI50 (OVCAR-4): > 100 µM (inactive)
GI50 (OVCAR-5): > 100 µM (inactive)
GI50 (OVCAR-8): > 100 µM (inactive)
GI50 (RPMI-8226): > 100 µM (inactive)
GI50 (RXF 393): > 100 µM (inactive)
GI50 (SF-268): > 100 µM (inactive)
GI50 (SF-295): > 100 µM (inactive)
GI50 (SF-539): > 100 µM (inactive)
GI50 (SK-MEL-28): > 100 µM (inactive)
GI50 (SK-MEL-2): > 100 µM (inactive)
GI50 (SK-MEL-5): > 100 µM (inactive)
GI50 (SN12C): > 100 µM (inactive)
GI50 (SNB-19): > 100 µM (inactive)
GI50 (SNB-75): 65.3 µM (inactive)
GI50 (SNB-78): > 100 µM (inactive)
GI50 (SR): > 100 µM (inactive)
GI50 (SW-620): > 100 µM (inactive)
GI50 (TK-10): > 100 µM (inactive)
GI50 (U-251): > 100 µM (inactive)
GI50 (UACC-257): > 100 µM (inactive)
GI50 (UO-31): > 100 µM (inactive)
GI50 (XF498): 74.3 µM (inactive)

COc1ccc(CNc2cc(OC)cc(OC)c2)cc1
GI50 (786-0): > 37.6 µM (inactive)
GI50 (A549): 60.8 µM (inactive)
GI50 (ACHN): > 69.3 µM (inactive)
GI50 (COLO 205): > 100 µM (inactive)
GI50 (DMS-114): 39.4 µM (inactive)
GI50 (EKVX): 60.8 µM (inactive)
GI50 (HCC 2998): > 87.1 µM (inactive)
GI50 (HCT-116): 52.4 µM (inactive)
GI50 (HL-60): > 39.2 µM (inactive)
GI50 (HOP-62): > 61.5 µM (inactive)
GI50 (HOP-92): 58.9 µM (inactive)
GI50 (IGROV-1): > 71.6 µM (inactive)
GI50 (K562): 29.8 µM (inactive)
GI50 (KM12): 48.6 µM (inactive)
GI50 (LOX IMVI): 56.8 µM (inactive)
GI50 (LXFL 529): 49.3 µM (inactive)
GI50 (M14): > 100 µM (inactive)
GI50 (M19-MEL): 72.3 µM (inactive)
GI50 (MOLT-4): > 42.9 µM (inactive)
GI50 (Malme-3M): > 56.6 µM (inactive)
GI50 (NCI-H226): 61.1 µM (inactive)
GI50 (NCI-H23): 40.6 µM (inactive)
GI50 (NCI-H460): > 86.1 µM (inactive)
GI50 (NCI-H522): 23.1 µM (inactive)
GI50 (OVCAR-3): 50.8 µM (inactive)
GI50 (OVCAR-4): 68.9 µM (inactive)
GI50 (OVCAR-8): > 82 µM (inactive)
GI50 (RPMI-8226): > 49.7 µM (inactive)
GI50 (RXF 393): 43.8 µM (inactive)
GI50 (SF-268): 33.9 µM (inactive)
GI50 (SK-MEL-28): 51.5 µM (inactive)
GI50 (SK-MEL-2): > 74 µM (inactive)
GI50 (SK-MEL-5): 30.3 µM (inactive)
GI50 (SK-OV-3): > 66.7 µM (inactive)
GI50 (SNB-19): > 100 µM (inactive)
GI50 (SNB-75): 35.3 µM (inactive)
GI50 (SNB-78): 29.6 µM (inactive)
GI50 (SW-620): > 100 µM (inactive)
GI50 (U-251): > 88.5 µM (inactive)
GI50 (UACC-257): 64 µM (inactive)
GI50 (UACC-62): 52 µM (inactive)
GI50 (UO-31): 29.7 µM (inactive)
GI50 (XF498): 63.5 µM (inactive)
